In patent publication EP4134440B1, “MALVA SYLVESTRIS FERMENTATION PRODUCT AND USE THEREOF” (Kabushiki Kaisha Yakult Honsha, priority 2020, dated 2021):
Converted amounts (≈) assume the structure as drawn.

Tests used:
[1] = test system: B16 mouse melanoma cells (B16-F1); test: Melanin production suppression test: intracellular melanin production level; assay type: cell-based; details: 72 h, three days in 0.5 mM theophylline-containing medium, concentration expressed as evaporation residue concentration
Method: (§1) As cells, B16 mouse melanoma cells (B16-F1) were used. Cells passaged 5-10 times, counting from the time of purchase, were used in the test. As medium, DMEM containing 5 or 10% FBS was used.
A quantity of 500 µL of DMEM medium containing 5% FBS was placed in a 24-well plate, and B16 melanoma cells were seeded 1.4 × 10^4 cells/well ([…]), then cultured for 24 hours at 37°C under 5% CO2. Thereafter, the medium was replaced with 1 mL of 0.5 mM theophylline-containing medium containing a test sample, and the cells were cultured for another three days. […]
After culture was completed, the cells were washed twice with PBS(-) and fixed with 99.5% ethanol. […] After allowing to cool, the entire amount of cell lysate was transferred to a 96-well plate, and the 405 nm absorbance was measured. The intracellular melanin production level per culture well was determined from a calibration curve that used synthetic melanin, and the intracellular melanin production level relative to the control was determined by the following formula. […]
The melanin production-suppressing activity of the obtained fermentation supernatants or unfermented plant extract was measured using B16 melanoma cells in the same way as in Test Example 2. […]

[2] = test system: B16 mouse melanoma cells (B16-F1); test: Melanin production suppression test: intracellular protein level (BCA method); assay type: cell-based; details: 72 h, three days in 0.5 mM theophylline-containing medium, concentration as evaporation residue concentration, * = estimated value
Method: as §1
A quantity of 500 µL of DMEM medium containing 5% FBS was placed in a 24-well plate, and B16 melanoma cells were seeded 1.4 × 10^4 cells/well (7.5 × 10^4 cells/cm^2), then cultured for 24 hours at 37°C under 5% CO2. Thereafter, the medium was replaced with 1 mL of 0.5 mM theophylline-containing medium containing a test sample, and the cells were cultured for another three days.
As the test sample, a fermentation supernatant by each lactic acid bacterium or unfermented Malva sylvestris extract was added to make a blend ratio (volume ratio) of 0.5%, 1%, 2%, or 5% in the medium, taking the undiluted sample solution as 100%. As a control, RO water was added to the medium in the same blend ratios instead of the fermentation supernatant by each lactic acid bacterium or unfermented Malva sylvestris extract. […]
The cell lysate was diluted ten-fold by ultrapure water (milli-Q water) and assayed by the BCA method (Pierce BCA Protein assay kit) using BSA as the reference protein, and the intracellular protein level relative to the control was determined using the following formula. […]

IC50 [1]: 340 µg/mL (≈ 1250 µM)
IC50 [2]: 1200 µg/mL (≈ 4410 µM)
SMILES: OC[C@H]1O[C@@H](Oc2ccc(O)cc2)[C@H](O)[C@@H](O)[C@@H]1O [compound 15, Arbutin]
